# Results from patent US20090169648A1, “COMPOSITIONS TO REDUCE BLOOD GLUCOSE LEVELS AND TREAT DIABETES” (Astrum Therapeutics Pty Ltd, priority 2006, published 2009).
# Like-named read-outs stand apart in the source and are kept apart here.
# Legend:
# [1] = test system: humans; details: seven clinical trials; cited from earlier work
# [2] = test system: Fatty diabetic Zucker rats; assay: Fatty diabetic Zucker rats, 4-week diets, fasting glucose; assay type: in vivo, rat; details: diet for 4 weeks
# Method: Fatty diabetic Zucker rats were separated into three groups to receive three diets for 4 weeks: a) 1% Mg in diet (5 times higher than control diet); b) a combination including 2 g/L of vitamin C in drinking water, 2.5% of KM in diet, 400 mg/kg of α-LA; c) Comp1 that includes 1% of Mg in diet, 2 g/L of vitamin C in drinking water, 2.5% of KM in diet, 400 mg/kg of α-LA.
# No change in the level of fasting glucose level vs baseline was observed by the administration of Mg. 17% reduction of glucose vs baseline was observed by the combination of Vitamin C, KM and α-LA. 28% reduction of glucose vs baseline was observed by Comp1 (the combination of Vitamin C, KM and α-LA with Mg salt)
# [3] = test system: humans; details: exposure of humans; cited from earlier work
# [4] = test system: timed-pregnant Sprague-Dawley rats; details: rat, in vivo; cited from earlier work
# [5] = test system: DM patients; details: cited from earlier work
# [6] = test system: humans; details: cited from earlier work
# [7] = test system: T2DM patients; details: 200 μg twice daily, 12 weeks, versus placebo; cited from earlier work
# [8] = test system: T2DM patients; details: 200 μg twice daily, three weeks, cited from earlier work
compound,measurement,setting,value
"[Cl-].[Cl-].[Mg+2] [Mg, Magnesium Chloride]",effect on glucose levels,[1],failed to show reduced glucose levels
same,reduction of fasting glucose level vs baseline,[2],No change
OCCNCCO [diethanolamine],individuals developing asthma,[3],0.6%
CCN(CC)CCO [diethylethanolamine],reduction of body weight,[4],9.5%
same,reduction of weight gain,[4],48%
"O=C(O)CCCCC1CCSS1 (stereo not drawn) [α-LA, Alpha-lipoic acid]",decrease of levels of peroxides,[5],34%
same,reduction of fasting glucose level,[6]; lean T2DM patients,~15%
same,reduction of fasting glucose level,[6]; patients with diabetic neuropathy,18%
same,effect on glucose levels,[6]; two clinical trials,no effect
Chromium picolinate [CrPic],improvement in fasting glucose,[7],0.44 mM
same,improvement in post-prandial serum glucose,[7],1.97 mM
same,reduction in glucose versus baseline,[8]; T2DM patients,−21%
same,change in cholesterol versus baseline,[8],−9.4%
same,change in triglycerides versus baseline,[8],−10.5%
same,glycated hemoglobin (HbA1C) after treatment,[8]; from 8.2% at baseline,7.6%
